The values below come from US9487462B2, “Inhibitors of matrix metalloproteinases” (PharmaHungary 2000 Kft., priority 2010, dated 2016).

Each structure is given as a SMILES string. Where only a bound is given, the exact number is not on record here.

In data set [1] the test system is neonatal rat cardiac myocytes. Description: Cytoprotective effect in cardiac myocytes subjected to hypoxia and reoxygenation. In kind it is cell-based. As to the method: Neonatal rat hearts were digested and isolated cardiomyocytes were plated onto 24-well plastic plates at […]. The cells were maintained at 37° C. in a humidified atmosphere of 5% CO2 and 95% air in a CO2 incubator until confluence was reached. Cultures at day 3 were used for treatments. Cells were kept under normoxic or simulated ischemic conditions, i.e. the growth medium was changed to a normoxic or hypoxic solution and the cells were incubated under 95% air and 5% CO2 or 95% N2 and 5% CO2 at 37° C. for 4 h, respectively as described in detail (Gorbe A, Giricz Z, Szunyog A, Csont T, Burley D S, Baxter G F, Ferdinandy P. Role of cGMP-PKG signaling in the protection of neonatal rat cardiac myocytes subjected to simulated ischemia/reoxygenation. Basic Res Cardiol. 105:643-650, 2010). The positive control ilomastate (0.5 microM) and MMP-inhibitors at different effective concentrations (EC 5, EC 10, EC 20, and EC50 as determined in previous test examples) were applied during normoxia or simulated ischemia and also during reoxygenation. The vehicle was DMSO. Cell viability was determined after Calcein A M fluorescent staining as described (Karliner J S, Honbo N, Summers K, Gray M O, Goetzl E J. The lysophospholipids sphingosine-1-phosphate and lysophosphatidic acid enhance survival during hypoxia in neonatal rat cardiac myocytes. J Mol Cell Cardiol, 33:1713-7, 2001). Total cell count was determined after digitonin treatment to permeabilize the cells by using propidium iodine fluorescent staining (Roy S S, Hajnoczky G. Calcium, mitochondria and apoptosis studied by fluorescence measurements. Methods. 46:213-223, 2008).

A further data set deals with MMP9 (Homo sapiens, UniProt P14780). Description: MMP activity assay (fluorogenic substrate), MMP9 catalytic domain. In kind it is biochemical. The note with it: Table 2. As to the method:
(§1) MMP activity assays were conducted as follows: MMP2, MMP9, MMP13 catalytic domain was expressed in E. coli in form of inclusion bodies followed by refolding and purification.
(§2) The Protocol of the Activity Assay:
(§3) Stock solution of substrate (Mca-Lys-Pro-Leu-Gly-Leu-Dpa-Ala-Arg-NH2) was prepared in DMSO at a concentration of 6 mM. Assays were performed in an assay buffer (50 mM Tris pH 7.5, 300 mM NaCl, 10 μM ZnSO4, 5 mM CaCl2, 0.005% Brij-35). The final DMSO concentration in all assays was 1.0%. […] The assays were carried out at 37° C. The fluorescence changes, resulting from the substrate cleavage, were detected using excitation at 340 nm and emission wavelength of 405 nm using a Wallac 1420 Microplate Reader. The reaction mixtures were preincubated with the inhibitors for 30 minutes. The reactions were started by the addition of MMP substrate, and the fluorescence intensity changes were measured after 60 minutes. The obtained fluorescence values were normalized and % inhibition values calculated. Dose response curves were determined from 6 concentration points using three fold dilution steps, each concentration point was determined in duplicate. IC50 values were calculated from the dose response curves.

The target of another data set is MMP1 (Homo sapiens (Human), UniProt P03956). Description: MMP activity assay (fluorogenic substrate), MMP1. In kind it is biochemical. The settings on record: Table 2; read-out: MM1 IC50.
Data set [2] is described as follows: Cytotoxicity, alamarBlue viability, HCT116. Type of data set: cell-based. The note with it: human, HCT116 colon tumor cells, 48 hours incubation, read-out: HCT116 LC50. As to the method:
(§4) Beside the inhibitory effect on MMPs we tested the cytotoxicity of the selected compounds. These measurements were done in parallel on two cell lines. One of them was the healthy human fibroblast cell line MRC-5 while the other was the human colon tumor cell line HCT116. The viability of the cells was monitored using alamarBlue. This dye is reduced by the cells resulting in an increased fluorescent signal which is proportional to the number of living cells. Cells were incubated with the dilutions of the tested compounds for 48 hours then alamarBlue was added to them for 4 hours. After that the fluorescence changes were detected using excitation at 540 nm and emission wavelength of 590 nm by a Wallac 1420 Microplate Reader. IC50 values were determined for the compounds using six concentrations and duplicate points for each concentration.

In a further data set the target is MMP2 (Homo sapiens, UniProt P08253). Description: MMP activity assay (fluorogenic substrate), MMP2 catalytic domain. In kind it is biochemical. The settings on record: Table 2; read-out: MMP2 IC50. As for the experimental part:
as §1, §2, §3

Data set [3] is described as follows: Cytotoxicity, alamarBlue viability, MRC-5. The settings on record: human, MRC-5 fibroblast cells, 48 hours incubation, read-out: MRC-5 LC50. In kind it is cell-based. As for the experimental part: as §4
(Resazurin is reduced to fluorescent resorufin, in cell work by metabolically active cells.)

The target of the next data set is MMP13 (Homo sapiens (Human), UniProt P45452). Description: MMP activity assay (fluorogenic substrate), MMP13 catalytic domain. The settings on record: Table 2; read-out: MMP13 IC50. In kind it is biochemical. As to the method:
as §1, §2
as §3, with “The fluorescence changes, resulting from the substrate cleavage, were detected using excitation at 340 nm and emission wavelength of 405 nm using a Wallac 1420 Microplate Reader.” left out

Chain of MMP1 (P03956 100-469, species assumed): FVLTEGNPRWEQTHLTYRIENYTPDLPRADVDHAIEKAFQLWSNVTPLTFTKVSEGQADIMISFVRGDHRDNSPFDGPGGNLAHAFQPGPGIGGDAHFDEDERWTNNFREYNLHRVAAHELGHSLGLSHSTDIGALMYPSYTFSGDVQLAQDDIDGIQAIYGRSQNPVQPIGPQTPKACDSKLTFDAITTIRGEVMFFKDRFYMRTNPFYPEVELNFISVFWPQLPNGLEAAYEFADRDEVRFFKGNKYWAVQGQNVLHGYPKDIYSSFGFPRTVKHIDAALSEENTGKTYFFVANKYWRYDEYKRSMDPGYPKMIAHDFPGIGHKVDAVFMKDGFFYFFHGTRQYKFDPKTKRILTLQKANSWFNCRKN

As for `O=C(O)c1c[nH]c(CNCc2ccc(OCc3cccnc3)cc2)n1` [Compound 31, 2-[({[4-(Pyridin-3-ylmethoxy)phenyl]methyl}amino)methyl]-1H-imidazole-4-carboxylic acid], the “Cytoprotective effect, % cell survival as compared to vehicle DMSO” value (from here on “Cytoprotective effect, % cell survival”) is reported as 97 ± 4% in data set [1] (normoxia, EC5 concentration 0.3 microM); 102 ± 5% in data set [1] (normoxia, EC10 concentration 0.6 microM); 104 ± 3% in data set [1] (normoxia, EC20 concentration 1.2 microM); 105 ± 4% in data set [1] (normoxia, EC50 concentration 2.5 microM); 109 ± 5% in data set [1] (simulated ischemia, EC5 concentration 0.3 microM); 103 ± 4% in data set [1] (simulated ischemia, EC10 concentration 0.6 microM). Besides, the “Cytoprotective effect, % cell survival” value in data set [1] (simulated ischemia, EC20 concentration 1.2 microM) is on record as 111 ± 4%; in data set [1] (simulated ischemia, EC50 concentration 2.5 microM), 147 ± 2 %. Further, the IC50 is > 500 µM on MMP9, 235 µM on MMP1, > 500 µM on MMP2 and 10 µM on MMP13. Further, the CC50 at 48 h in data set [2] turned out to be 70 µM; in data set [3], 200 µM.

Take `CCOC(=O)c1csc(CN(Cc2ccc(F)cc2)Cc2ccc(OCc3ccncc3)cc2)n1` [Compound 18, Ethyl 2-({[(4-fluorophenyl)methyl]({[4-(pyridin-4-ylmethoxy)phenyl]methyl})amino}methyl)-1,3-thiazole-4-carboxylate]: the IC50 is 230 µM at MMP9, > 500 µM on MMP1, > 500 µM at MMP2 and 13 µM at MMP13. The CC50 at 48 h in data set [2] is 0.04 µM; in data set [3] it was 2.9 µM.

For the compound `CCOC(=O)c1csc(CN(Cc2ccc(OCc3ccccc3)cc2)Cc2cccnc2)n1` [Compound 16, Ethyl 2-[({[4-(benzyloxy)phenyl]methyl}(pyridin-3-ylmethyl)amino)methyl]-1,3-thiazole-4-carboxylate], the “Cytoprotective effect, % cell survival” value in data set [1] (normoxia, EC5 concentration 4.0 microM) was 105 ± 2%; in data set [1] (normoxia, EC10 concentration 8.0 microM), 108 ± 3 %; in data set [1] (normoxia, EC20 concentration 16.0 microM), 99 ± 2%; in data set [1] (normoxia, EC50 concentration 32.0 microM) it was 91 ± 2 %; in data set [1] (simulated ischemia, EC5 concentration 4.0 microM), 119 ± 3 %; in data set [1] (simulated ischemia, EC10 concentration 8.0 microM) it was 119 ± 3 %. Moreover, the “Cytoprotective effect, % cell survival” value in data set [1] (simulated ischemia, EC20 concentration 16.0 microM) was 122 ± 4 %; in data set [1] (simulated ischemia, EC50 concentration 32.0 microM) it was 113 ± 4 %. In addition, the IC50 was 280 µM against MMP9, 340 µM at MMP1, > 500 µM at MMP2 and 5 µM at MMP13. The CC50 at 48 h in data set [2] is 1.8 µM; in data set [3], 1.9 µM.

In the case of `CCOC(=O)c1csc(CN(Cc2ccc(F)cc2)Cc2ccc(-c3ccccc3)cc2)n1` [Compound 32, 2-{[Biphenyl-4-ylmethyl-(4-fluoro-benzyl)-amino]-methyl}-thiazole-4-carboxylic acid ethylester], the IC50 was 200 µM at MMP9, 90 µM at MMP1, > 500 µM at MMP2 and 31 µM at MMP13. Also, the CC50 at 48 h in data set [2] was found to be 0.7 µM; in data set [3], 13 µM.

For `O=C(O)c1csc(CN(Cc2ccc(F)cc2)Cc2ccc(-c3ccccc3)cc2)n1` [Compound 15, 2-({[(4-Fluorophenyl)methyl][(4-biphenyl)methyl]amino}methyl)-1,3-thiazole-4-carboxylic acid], the “Cytoprotective effect, % cell survival” value is reported as 95 ± 2% in data set [1] (normoxia, EC5 concentration 3.0 microM); 99 ± 2% in data set [1] (normoxia, EC10 concentration 10.0 microM); 100 ± 2% in data set [1] (normoxia, EC20 concentration 30.0 microM); 83 ± 2 % in data set [1] (normoxia, EC50 concentration 90.0 microM); 109 ± 5% in data set [1] (simulated ischemia, EC5 concentration 3.0 microM); 117 ± 5 % in data set [1] (simulated ischemia, EC10 concentration 10.0 microM). The “Cytoprotective effect, % cell survival” value is 114 ± 4 % in data set [1] (simulated ischemia, EC20 concentration 30.0 microM) and 88 ± 4% in data set [1] (simulated ischemia, EC50 concentration 90.0 microM). Besides, the IC50 on MMP9 amounted to 20 µM; on MMP1 it was 17 µM; on MMP2 it was 30 µM; on MMP13, 3 µM. The CC50 at 48 h in data set [2] was 1 µM; in data set [3] it was 2.9 µM.

`Cn1cc(C(F)(F)F)nc1CN(Cc1ccc(F)cc1)Cc1ccc(OCc2ccccc2)cc1` [Compound 26, {[4-(Benzyloxy)phenyl]methyl}[(4-fluorophenyl)methyl]{[1-methyl-4-(trifluoromethyl)-1H-imidazol-2-yl]methyl}amine]: the IC50 against MMP9 was > 500 µM; on MMP1, > 500 µM; on MMP2 it was > 500 µM; at MMP13 it was 34 µM. Further, the CC50 at 48 h in data set [2] came to 25 µM; in data set [3], 40 µM.

With `O=C(O)c1csc(CN(Cc2ccccc2)Cc2ccccc2)n1` [Compound 7, 2-[(Dibenzylamino)methyl]-1,3-thiazole-4-carboxylic acid], the IC50 on MMP9 was 13 µM; at MMP1, 11 µM; at MMP2 it was 10 µM; at MMP13, 3.2 µM. Moreover, the CC50 at 48 h was determined as 73 µM in data set [2] and 117 µM in data set [3].

With `CCOC(=O)c1csc(CN(Cc2ccc(OCc3cccnc3)cc2)Cc2cccnc2)n1` [Compound 17, Ethyl 2-[({[4-(pyridin-3-ylmethoxy)phenyl]methyl}(pyridin-3-ylmethyl)amino)methyl]-1,3-thiazole-4-carboxylate], the IC50 at MMP9 was determined as 230 µM; on MMP1, 200 µM; on MMP2, 195 µM; on MMP13 it was 19 µM. Also, the CC50 at 48 h in data set [2] came out at 47 µM; in data set [3], 15 µM.

As a reminder, the IC50 is the concentration that gives 50% inhibition.
